Data published in PubChem BioAssay (NCI).
Where “and” joins values, the source holds several entries; their conditions need not be identical. Equal values may be shown once.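 All cell lines were grown in 96-well plates and treated with compound for 48 hours. GI50 = concentration required for 50% inhibition of growth. The concentration for full growth arrest is given as TGI.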

These compounds were tested on XF 498 CNS (assay: NCI tumour cell line growth inhibition, 48 h).
For COc1ccc2[nH]cc(/C=C(/C)c3ccncc3)c2c1, the GI50 was 4.3 µM and the TGI was 27.8 µM and 44.5 µM.
With COc1ccc2cc1Oc1ccc(cc1)C[C@H]1c3cc(c(OC)cc3CCN1C)Oc1c(O)c(OC)cc3c1[C@H](C2)N(C)CC3 the TGI was 49.4 µM.
For Cc1ccc(NC(=O)CC2Sc3ccccc3NC2=O)cc1C (configuration not stated), the TGI was over 100 µM.
For O=C1C=C[C@@H](COC2OC(CO)C(O)C(O)C2O)O1 (some centres not stated), the GI50 was 14.3 µM and the TGI was 31.6 µM and 34.5 µM.

What follows are compounds tested on SNB-78 CNS (assay: NCI tumour cell line growth inhibition, 48 h).
In the case of COc1ccc2[nH]cc(/C=C(/C)c3ccncc3)c2c1, the GI50 is reported as 9.43 µM and the TGI is reported as over 100 µM.
Work on COC(=O)[C@@H](O)[C@](O)(CCC(C)C)C(=O)O[C@@H]1C(OC)=C[C@]23CCCN2CCc2cc4c(cc2[C@H]13)OCO4 yielded a TGI of 10.9 µM.
Work on COc1ccc2cc1Oc1ccc(cc1)C[C@H]1c3cc(c(OC)cc3CCN1C)Oc1c(O)c(OC)cc3c1[C@H](C2)N(C)CC3 yielded a TGI of 117 µM.
For Cc1ccc(NC(=O)CC2Sc3ccccc3NC2=O)cc1C (configuration not stated), the TGI was over 100 µM.

These compounds were tested on P388 leukemia (assay: NCI tumour cell line growth inhibition, 48 h).
COc1ccc2[nH]cc(/C=C(/C)c3ccncc3)c2c1 was tested, and the TGI was 9.68 µM.
COC(=O)[C@@H](O)[C@](O)(CCC(C)C)C(=O)O[C@@H]1C(OC)=C[C@]23CCCN2CCc2cc4c(cc2[C@H]13)OCO4 showed a TGI of 1.16 µM.
Compound COc1ccc2cc1Oc1ccc(cc1)C[C@H]1c3cc(c(OC)cc3CCN1C)Oc1c(O)c(OC)cc3c1[C@H](C2)N(C)CC3 has a TGI of 19.8 µM.

These compounds were tested on SN12K1 renal (assay: NCI tumour cell line growth inhibition, 48 h).
For COc1ccc2[nH]cc(/C=C(/C)c3ccncc3)c2c1, the GI50 was 5.6 µM and the TGI was 27.6 µM and > 100 µM.
COC(=O)[C@@H](O)[C@](O)(CCC(C)C)C(=O)O[C@@H]1C(OC)=C[C@]23CCCN2CCc2cc4c(cc2[C@H]13)OCO4 was tested, and the TGI was 5.89 µM.
In the case of COc1ccc2cc1Oc1ccc(cc1)C[C@H]1c3cc(c(OC)cc3CCN1C)Oc1c(O)c(OC)cc3c1[C@H](C2)N(C)CC3, the TGI is reported as 39.2 µM.
In the case of O=C1C=C[C@@H](COC2OC(CO)C(O)C(O)C2O)O1 (some centres not stated), the TGI is reported as 28.9 µM and 29.2 µM.

What follows are compounds tested on LXFL 529 NSCLC (assay: NCI tumour cell line growth inhibition, 48 h).
Cc1ccc(NC(=O)CC2Sc3ccccc3NC2=O)cc1C (configuration not stated) showed a TGI of over 100 µM.

What follows are compounds tested on DLD-1 colon (assay: NCI tumour cell line growth inhibition, 48 h).
In the case of COc1ccc2[nH]cc(/C=C(/C)c3ccncc3)c2c1, the GI50 is reported as 4 µM and the TGI is reported as over 100 µM.
Work on COC(=O)[C@@H](O)[C@](O)(CCC(C)C)C(=O)O[C@@H]1C(OC)=C[C@]23CCCN2CCc2cc4c(cc2[C@H]13)OCO4 yielded a TGI of over 19.7 µM.
Work on COc1ccc2cc1Oc1ccc(cc1)C[C@H]1c3cc(c(OC)cc3CCN1C)Oc1c(O)c(OC)cc3c1[C@H](C2)N(C)CC3 yielded a TGI of 53.7 µM.
Compound Cc1ccc(NC(=O)CC2Sc3ccccc3NC2=O)cc1C (configuration not stated) has a TGI of over 100 µM.
In the case of O=C1C=C[C@@H](COC2OC(CO)C(O)C(O)C2O)O1 (some centres not stated), the TGI is reported as 17.9 µM and 19.1 µM.

The compounds below were run on M19-MEL melanoma (assay: NCI tumour cell line growth inhibition, 48 h).
With COc1ccc2[nH]cc(/C=C(/C)c3ccncc3)c2c1 the GI50 was 6.77 µM and the TGI was 32 µM and 21.5 µM.
COC(=O)[C@@H](O)[C@](O)(CCC(C)C)C(=O)O[C@@H]1C(OC)=C[C@]23CCCN2CCc2cc4c(cc2[C@H]13)OCO4 showed a TGI of 4.16 µM.
In the case of COc1ccc2cc1Oc1ccc(cc1)C[C@H]1c3cc(c(OC)cc3CCN1C)Oc1c(O)c(OC)cc3c1[C@H](C2)N(C)CC3, the TGI is reported as 43.4 µM.
Compound Cc1ccc(NC(=O)CC2Sc3ccccc3NC2=O)cc1C (configuration not stated) has a TGI of over 100 µM.
O=C1C=C[C@@H](COC2OC(CO)C(O)C(O)C2O)O1 (some centres not stated) was tested, and the GI50 was 3.8 µM and the TGI was 16.3 µM and 26.8 µM.

These compounds were tested on HOP-18 NSCLC (assay: NCI tumour cell line growth inhibition, 48 h).
COc1ccc2[nH]cc(/C=C(/C)c3ccncc3)c2c1 gave a TGI of over 100 µM.
COC(=O)[C@@H](O)[C@](O)(CCC(C)C)C(=O)O[C@@H]1C(OC)=C[C@]23CCCN2CCc2cc4c(cc2[C@H]13)OCO4 showed a TGI of 7.81 µM.
COc1ccc2cc1Oc1ccc(cc1)C[C@H]1c3cc(c(OC)cc3CCN1C)Oc1c(O)c(OC)cc3c1[C@H](C2)N(C)CC3 showed a TGI of 139 µM.
Cc1ccc(NC(=O)CC2Sc3ccccc3NC2=O)cc1C (configuration not stated) showed a TGI of over 100 µM.
In the case of O=C1C=C[C@@H](COC2OC(CO)C(O)C(O)C2O)O1 (some centres not stated), the TGI is reported as over 100 µM.

What follows are compounds tested on DMS 114 small cell lung (assay: NCI tumour cell line growth inhibition, 48 h).
With COc1ccc2[nH]cc(/C=C(/C)c3ccncc3)c2c1 the GI50 was 2230 nM and the TGI was 7.19 µM and 6.35 µM.
COC(=O)[C@@H](O)[C@](O)(CCC(C)C)C(=O)O[C@@H]1C(OC)=C[C@]23CCCN2CCc2cc4c(cc2[C@H]13)OCO4 showed a TGI of 2.2 µM.
COc1ccc2cc1Oc1ccc(cc1)C[C@H]1c3cc(c(OC)cc3CCN1C)Oc1c(O)c(OC)cc3c1[C@H](C2)N(C)CC3 gave a TGI of 49.7 µM.
Cc1ccc(NC(=O)CC2Sc3ccccc3NC2=O)cc1C (configuration not stated) was tested, and the TGI was over 100 µM.
For O=C1C=C[C@@H](COC2OC(CO)C(O)C(O)C2O)O1 (some centres not stated), the GI50 was 3730 nM and the TGI was 14.2 µM and 28.5 µM.

The compounds below were run on KM20L2 colon (assay: NCI tumour cell line growth inhibition, 48 h).
With COc1ccc2[nH]cc(/C=C(/C)c3ccncc3)c2c1 the GI50 was 2.96 µM and the TGI was 8.67 µM.
COC(=O)[C@@H](O)[C@](O)(CCC(C)C)C(=O)O[C@@H]1C(OC)=C[C@]23CCCN2CCc2cc4c(cc2[C@H]13)OCO4 showed a TGI of 9.49 µM.
COc1ccc2cc1Oc1ccc(cc1)C[C@H]1c3cc(c(OC)cc3CCN1C)Oc1c(O)c(OC)cc3c1[C@H](C2)N(C)CC3 showed a TGI of 4.27 µM.
With Cc1ccc(NC(=O)CC2Sc3ccccc3NC2=O)cc1C (configuration not stated) the TGI was over 100 µM.
O=C1C=C[C@@H](COC2OC(CO)C(O)C(O)C2O)O1 (some centres not stated) gave a GI50 of 14.4 µM and a TGI of 38 µM.
